From patent publication US20210008161A1, “METHODS AND COMPOSITIONS FOR IMPROVED HOMOLOGY DIRECTED REPAIR” (CRISPR THERAPEUTICS AG, priority 2019, published 2021)

What was measured:
[1] = tested on: patient-derived PBMCs; test: SCD gene correction by HDR and INDEL frequency by NGS in patient-derived PBMCs; type: cell-based, human
Procedure: It was further evaluated if editing of patient-derived PBMCs in the presence of i53 would yield high levels of correction of the HBB gene. […] The PBMCs were expanded in StemSpan SFEM II (1×)+StemSpan CC100 (1×)+Dexamethasone 1 μM+hEPO 2 IU/mL at 37° C. under normoxic conditions (20% O2 concentration). The cells were edited following five days of in vitro culture. […] On day 8, the cells were transferred to Phase 1 media, and differentiation to erythrocytes was performed through day 18 as described above. Efficiency of HDR at the HBB gene locus was evaluated on day 12 using the NGS assay described in Example 4. Also evaluated was the frequency of INDELs at the R02 cut-site as measured by NGS.

[2] = tested on: CD34-expressing LT-HSPCs derived from human patients with sickle cell disease; test: Hemoglobin expression (HbF, HbA, HbS) by HPLC; type: cell-based
Procedure: Hemoglobin expressed by edited cells that were differentiated to erythrocytes was assessed. Hemoglobin A (HbA) is composed of 2 alpha-globin and 2 beta-globin units and is the dominant hemoglobin in adult humans. In human carriers of the HBB E6V mutation, a high proportion of total hemoglobin is hemoglobin S (HbS), which is composed of 2 alpha-globin units and 2 beta-globin units with E6V.
(§1) Briefly, on day 18 post-editing, 1×10^6 cells were harvested, centrifuged, and washed with PBS. The cells were prepared for HPLC analysis. Hemoglobin variants were quantified in cell samples using reverse-phase HPLC chromatography and gradient elution. […] Thus, high levels of HDR achieved with i53 contribute to normalization of hemoglobin expression products.

[3] = tested on: CD34-expressing LT-HSPCs; test: Indel formation at HBB locus by TIDE analysis; type: cell-based, human
Procedure: Editing efficiency at the HBB locus was evaluated by measuring indel formation by TIDE analysis. […] This group had 1.7-fold reduction in INDEL frequency relative to cells treated with RNP+AAV,

[4] = tested on: human LT-HSPCs administered to cKit mice; test: Indel formation at HBB locus in mouse bone marrow by TIDE analysis; type: in vivo; conditions: 16 weeks post engraftment
Procedure: (§2) NHEJ editing of the HBB locus was also evaluated in mouse bone marrow collected at 16 weeks post engraftment. Indel formation at the site of Cas9/gRNA cutting was evaluated by TIDE analysis in bone marrow samples and compared to indel formation of LT-HSPCs prior to administration.
as §2, with “administration. Regardless of the method used to edit the LT-HSPCs, indel formation was similar at 16 weeks post-engraftment to the level present prior to administration (FIG. 27).” for “administration.”

[5] = tested on: patient-derived PBMCs; test: Hemoglobin expression by HPLC in edited patient-derived PBMCs; type: cell-based, human; conditions: FIG. 36
Procedure: as §1
Hemoglobin expression was measured by HPLC analysis for edited PBMCs as described above.

[6] = tested on: CD34-expressing LT-HSPCs derived from human patients with sickle cell disease; test: SCD gene correction (E6V to E6) by HDR and INDEL frequency by NGS in patient-derived cells
Procedure: The effect of i53 on HDR efficiency was evaluated in cells derived from patients with a sickle cell mutation in the HBB gene. Specifically, CD34-expressing LT-HSPCs derived from human patients with sickle cell disease were edited with SpCas9, R02 guide, and AAV.323 encoding a correction to the E6V mutation in the HBB gene.
Briefly, CD34-expressing LT-HSPCs were derived from plerixafor+GCSF-dual mobilized peripheral blood obtained from a human donor with sickle cell disease. The cells were seeded in Phase I media at a cell density of 2×10^5 cells/mL. Cells were cultured at 37° C. under normoxic conditions (i.e., oxygen 20%).
Editing of cells was performed following two days of in vitro culture. Briefly, 5×10^5 cells were electroporated with RNP containing 20 μg SpCas9 and 20 μg R02 sgRNA, AAV.323 at a dose of 10,000 MOI, and 1 μg mRNA encoding i53. The cells were incubated with AAV.323 for 1 hour prior to electroporation. The cells were edited by electroporation with R02+AAV.323+i53 mRNA and compared to control cells edited with R02 only, R02+AAV.323, or cells exposed to electroporation without RNP or AAV editing components (mock EP).
The efficiency of gene correction by HDR repair at the HBB gene locus was evaluated by NGS assay as described in Example 3. Frequency of INDELs at the R02 cut site was evaluated by NGS analysis. […]

[7] = tested on: wild-type CD34-expressing LT-HSPCs; test: HDR and INDEL frequency at HBB locus with AAV.323 donor by NGS; type: cell-based, human
From the text: The AAV-encoded homology donor used for correction is referred to as “AAV.323” and is identified by sequence in Table 8.

[8] = tested on: hTERT RPE-1 cells; test: HDR insertion of AAV-delivered GFP donor into AAVS1 locus (GFP fluorescence); type: cell-based, human; conditions: AAV (DJ serotype) GFP donor and mRNA encoding i53, over AAV alone, FIG. 7
Procedure: RPE1 cells were lipofected with RNP comprised of Cas9 protein and gRNA targeting the AAVS1 locus (target sequence shown in SEQ ID NO: 3; spacer sequence shown in SEQ ID NO: 4). Cells were edited with 1 μg Cas9 and 1 μg gRNA. Cells were infected with AAV containing homology donor DNA encoding GFP (DJ serotype) as well as mRNA encoding i53 (mRNA ORF shown in SEQ ID NO: 69). […] HDR efficiency was determined by measuring the level of GFP fluorescence in the cells following gene-editing.

[9] = day 18 post-editing, compared to mock EP control cells, FIG. 34A
[10] = compared to mock EP control cells

Substance: i53: polypeptide inhibitor of 53BP1 (SEQ ID NO: 70), introduced as an mRNA-encoded protein (ORF SEQ ID NO: 69)
- frequency of INDELs ([1]; compared to control cells, FIG. 35B): reduced
- frequency of correction of the HBB gene by HDR repair ([1]; day 12, FIG. 35A): approximately 60%
- level of HDR repair and frequency of INDELs in HBB, PBMCs vs CD34-expressing LT-HSPCs ([1]; edited in the presence of i53): comparable
- HbA levels [2, 9]: increased
- HbS levels [2, 9]: dramatically reduced
- decrease in HbS levels ([2]; relative to mock EP control cells, FIG. 34B): 90%
- risk of indel formation within the target gene locus ([3]; CD34+ HSCs contacted with 53BP1 polypeptide inhibitor, summary statement): less than 30%
- level of indel formation ([3]; RNP+AAV in the presence of i53, FIG. 11): lowest
- level of indel formation in bone marrow ([4]; Example 5, FIG. 20): lowest
- level of indel formation in bone marrow ([4]; Example 7, FIG. 27): lowest
- expression of HbA [5, 10]: increased
- expression of HbS [5, 10]: significant reduction
- ratio of HbS to HbA, PBMCs vs CD34-expressing LT-HSPCs ([5]; edited in the presence of i53): comparable
- incorporation of the E6V→E6 gene correction ([6]; R02 RNP + AAV.323 + 1 μg i53 mRNA, FIG. 32A, 34B): 66%
- fold lower frequency of INDELs at the R02 cut site ([6]; compared to cells edited with RNP+AAV.323 alone, FIG. 32B): 1.9 fold
- fold increase in HDR efficiency for incorporation of the AAV.323 gene-edit ([7]; 1 μg i53 mRNA, day 2 post-editing, compared to R02+AAV.323 only, FIG. 30A): approximately 1.5 fold
- frequency of INDELs at the R02 cut site ([7]; i53 vs R02+AAV.323 only, combination vs i53 only, FIG. 30B): decreased
- HDR efficiency [8]: increase
